Consider 34 compounds from patent publication US10975084B2, “KDM5 inhibitors” (Merck Sharp & Dohme Corp., priority 2016, dated 2021).

The target of the test is KDM5B (Homo sapiens (Human), UniProt Q9UGL1). Put plainly: KDM5B TR-FRET Enzyme Activity Assay. Type of test: biochemical. As to conditions: LANCE TR-FRET; 5 nM full-length recombinant KDM5B; ten point titration 100000 nM to 5.08 nM. As to the method: KDM5B TR-FRET Enzyme Activity Assay
KDM5B enzymatic activity was determined with the LANCE (Lanthanide Chelate Excite) TR-FRET (Time-resolved fluorescence resonance energy transfer) assay. […] To each well of a white Greiner 1536 Lumitrac 1536 well-plate, 50 nL of compound (100 fold dilution in final assay volume of 5 μL) was dispensed, followed by the addition of 4 μL of 1× assay buffer (50 mM Hepes 7.3, 0.5 mM TCEP, 0.005% Brij-35, 0.02% BSA, 50 μM Na-L-Ascorbate and 2 μM AmFe(II)Sulfate) containing 5 nM of Full-length KDM5B enzyme (recombinant protein from baculovirus-transfected Sf21 cells: full-length KDM5B; MW=176.825 kDa). Following a 30 minutes compound and enzyme incubation in a humidified chamber, each reaction was initiated by the addition of 1 μL 1× assay buffer containing […] biotinylated H3K4Me3 peptide, and 500 nM α-ketoglutarate. The final reaction in each well of 5 μL consists of 5 nM KDM5B, 500 nM biotinylated-peptide, and 500 nM α-ketoglutarate. De-methylation reactions were allowed to proceed for 60 minutes. Reactions were immediately quenched by the addition of 5 uL of 2× Lance Detection Buffer (PerkinElmer) with 0.5 mM EDTA and 2 nM of Eu-anti-H3K4Me1-2 antibody, and 30 nM of Streptavidin-conjugated Dylight 650 detection reagents. After 60 minutes incubation with detection reagents, reaction plates were read on a PerkinElmer EnVision plate reader using standard TR-FRET protocol. Briefly, excitation of donor molecules (Eu-chelate-anti-H3K4Me1-2-antibody) with a laser light source at 337 nm produces energy that can be transferred to Dylight-650 acceptor molecules if this donor:acceptor pair is within close proximity. Fluorescence intensity at both 665 nm (acceptor) and 615 nm (donor) are measured and a TR-FRET ratio calculated for each well (acceptor intensity/donor intensity). IC50 values were determined by 4 parameter robust fit of TR-FRET ratio values vs. (Log 10) compound concentrations.

Each structure is given as a SMILES string.

KDM5B, sequence (Q9UGL1 whole entry): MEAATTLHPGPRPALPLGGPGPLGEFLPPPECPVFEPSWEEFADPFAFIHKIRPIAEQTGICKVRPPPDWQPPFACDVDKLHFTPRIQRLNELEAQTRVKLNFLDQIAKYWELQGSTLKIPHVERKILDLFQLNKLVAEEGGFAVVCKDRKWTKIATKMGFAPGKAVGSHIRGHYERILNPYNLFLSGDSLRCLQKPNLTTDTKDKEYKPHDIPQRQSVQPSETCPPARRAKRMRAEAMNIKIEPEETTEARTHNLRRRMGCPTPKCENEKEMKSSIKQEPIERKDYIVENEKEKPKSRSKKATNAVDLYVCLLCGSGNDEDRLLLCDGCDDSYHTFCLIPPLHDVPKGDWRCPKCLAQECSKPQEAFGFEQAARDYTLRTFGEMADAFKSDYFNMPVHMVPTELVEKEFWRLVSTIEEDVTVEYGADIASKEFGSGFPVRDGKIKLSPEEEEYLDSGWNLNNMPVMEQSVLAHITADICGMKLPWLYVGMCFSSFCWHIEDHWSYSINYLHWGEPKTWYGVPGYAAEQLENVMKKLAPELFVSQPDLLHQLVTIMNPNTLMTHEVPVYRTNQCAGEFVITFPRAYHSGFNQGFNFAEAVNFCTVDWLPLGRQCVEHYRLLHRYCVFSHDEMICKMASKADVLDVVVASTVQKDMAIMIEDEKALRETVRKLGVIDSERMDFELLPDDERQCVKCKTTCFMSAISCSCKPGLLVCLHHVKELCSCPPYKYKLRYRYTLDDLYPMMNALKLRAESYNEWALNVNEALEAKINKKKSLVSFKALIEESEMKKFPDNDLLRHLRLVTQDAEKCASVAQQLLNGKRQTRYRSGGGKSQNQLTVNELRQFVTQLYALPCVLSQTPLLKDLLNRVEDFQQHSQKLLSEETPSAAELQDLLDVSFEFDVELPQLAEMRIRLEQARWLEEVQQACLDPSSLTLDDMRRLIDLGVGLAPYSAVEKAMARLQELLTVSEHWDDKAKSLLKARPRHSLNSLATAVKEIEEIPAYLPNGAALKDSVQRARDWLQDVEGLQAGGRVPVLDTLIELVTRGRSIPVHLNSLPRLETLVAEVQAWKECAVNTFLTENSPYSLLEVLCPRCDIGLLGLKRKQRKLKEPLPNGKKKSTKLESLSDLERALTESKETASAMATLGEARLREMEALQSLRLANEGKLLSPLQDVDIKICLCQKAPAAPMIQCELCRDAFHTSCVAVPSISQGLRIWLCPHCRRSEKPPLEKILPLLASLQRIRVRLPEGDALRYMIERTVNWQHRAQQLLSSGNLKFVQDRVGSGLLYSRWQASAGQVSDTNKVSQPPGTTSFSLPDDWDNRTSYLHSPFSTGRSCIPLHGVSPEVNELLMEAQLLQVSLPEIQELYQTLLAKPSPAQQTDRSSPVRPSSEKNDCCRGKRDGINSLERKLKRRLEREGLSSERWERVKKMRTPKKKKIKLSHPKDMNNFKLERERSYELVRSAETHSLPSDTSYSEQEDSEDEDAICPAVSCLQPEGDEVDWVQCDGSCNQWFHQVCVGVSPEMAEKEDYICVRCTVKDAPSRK

Usually IC50 stands for the concentration at which inhibition is half-maximal. On to `CC(C)c1c(-c2coc(-c3ccc(F)cc3)n2)[nH]c2ncnn2c1=O` [Example 11-43, 5-[2-(4-fluorophenyl)-1,3-oxazol-4-yl]-6-(1-methylethyl)[1,2,4]triazolo[1,5-a]pyrimidin-7(4H)-one], for which the IC50 amounted to 23.8 nM.

Regarding `CC(C)c1c(-c2cccc(N3CCOCC3)c2)[nH]c2ncnn2c1=O` [Example 11-44, 6-(1-methylethyl)-5-(3-morpholin-4-ylphenyl)[1,2,4]triazolo[1,5-a]pyrimidin-7(4H)-one], the half-maximal inhibitory concentration (IC50) amounted to 46.3 nM.

Regarding `CCOC(=O)Cc1ccc(-c2[nH]c3ncnn3c(=O)c2C(C)C)cc1` [Example 11-45, ethyl {4-[6-(1-methylethyl)-7-oxo-4,7-dihydro[1,2,4]triazolo[1,5-a]pyrimidin-5-yl]phenyl}acetate], the IC50 amounted to 17.4 nM.

With `CC(C)c1c(-c2cccc(Oc3ccccc3)c2)[nH]c2ncnn2c1=O` [Example 11-46, 6-(1-methylethyl)-5-(3-phenoxyphenyl)[1,2,4]triazolo[1,5-a]pyrimidin-7(4H)-one], the half-maximal inhibitory concentration (IC50) is 303 nM.

In the case of `CC(C)c1c(-c2cnn(CCS(C)(=O)=O)c2)[nH]c2ncnn2c1=O` [Example 11-47, 6-(1-methylethyl)-5-{1-[2-(methylsulfonyl)ethyl]-1H-pyrazol-4-yl}[1,2,4]triazolo[1,5-a]pyrimidin-7(4H)-one], the IC50 was determined as 6.93 nM.

On to `CC(C)c1c(-c2ccc(CN3CCCCC3)cc2)[nH]c2ncnn2c1=O` [Example 11-48, 6-(1-methylethyl)-5-[4-(piperidin-1-ylmethyl)phenyl][1,2,4]triazolo[1,5-a]pyrimidin-7(4H)-one], for which the IC50 came to 16.8 nM.

For `CC(C)c1c(-c2cccc(CN3CCCCC3)c2)[nH]c2ncnn2c1=O` [Example 11-49, 6-(1-methylethyl)-5-[3-(piperidin-1-ylmethyl)phenyl][1,2,4]triazolo[1,5-a]pyrimidin-7(4H)-one], the IC50 was 33.2 nM.

As to `CC(C)c1c(-c2ccc(C(O)C(F)(F)F)cc2)[nH]c2ncnn2c1=O` (stereo not shown) [Example 11-50, 6-(1-methylethyl)-5-[4-(2,2,2-trifluoro-1-hydroxyethyl)-phenyl][1,2,4]triazolo[1,5-a]pyrimidin-7(4H)-one], the IC50 is 20.1 nM.

In the case of `CC(C)c1c(-c2cnn(-c3cccc(Cl)c3)c2)[nH]c2ncnn2c1=O` [Example 11-51, 5-[1-(3-chlorophenyl)-1H-pyrazol-4-yl]-6-(1-methylethyl)[1,2,4]triazolo[1,5-a]pyrimidin-7(4H)-one], the IC50 is 9.66 nM.

Take `CC(C)c1c(-c2cnn(CCN3CCOCC3)c2)[nH]c2ncnn2c1=O` [Example 11-52, 6-(1-methylethyl)-5-[1-(2-morpholin-4-ylethyl)-1H-pyrazol-4-yl][1,2,4]triazolo[1,5-a]pyrimidin-7(4H)-one]: the 50% inhibitory concentration (IC50) is 6.96 nM.

For the compound `CC(C)c1c(-c2cnn3c2CCCC3)[nH]c2ncnn2c1=O` [Example 11-53, 6-(1-methylethyl)-5-(4,5,6,7-tetrahydropyrazolo[1,5-a]pyridin-3-yl)[1,2,4]triazolo[1,5-a]pyrimidin-7(4H)-one], the IC50 turned out to be 75.1 nM.

On to `CC(C)c1c(-c2cccc(C(O)C(F)(F)F)c2)[nH]c2ncnn2c1=O` (stereo not shown) [Example 11-54, 6-(1-methylethyl)-5-[3-(2,2,2-trifluoro-1-hydroxyethyl)phenyl][1,2,4]triazolo[1,5-a]pyrimidin-7(4H)-one], for which the half-maximal inhibitory concentration (IC50) turned out to be 31.4 nM.

Regarding `CC(C)c1c(/C=C/c2ccccc2)[nH]c2ncnn2c1=O` [Example 11-55, 6-(1-methylethyl)-5-[(E)-2-phenylethenyl][1,2,4]triazolo[1,5-a]pyrimidin-7(4H)-one], the IC50 was 9.45 nM.

Regarding `CC(C)c1c(C2=CCC(C#N)CC2)[nH]c2ncnn2c1=O` (stereo not shown) [Example 11-56], the IC50 worked out at 110 nM.

For the compound `COc1cccc(-c2[nH]c3ncnn3c(=O)c2C(C)C)c1` [Example 11-57, 5-(3-methoxyphenyl)-6-(1-methylethyl) [1,2,4]triazolo[1,5-a]pyrimidin-7(4H)-one], the IC50 is 55.4 nM.

Regarding `COc1ccc(-c2[nH]c3ncnn3c(=O)c2C(C)C)cc1` [Example 11-58, 5-(4-methoxyphenyl)-6-(1-methylethyl) [1,2,4]triazolo[1,5-a]pyrimidin-7(4H)-one], the IC50 is 37.3 nM.

Take `CC(C)c1c(-c2cccc(CO)c2)[nH]c2ncnn2c1=O` [Example 11-59, 5-[3-(hydroxymethyl)phenyl]-6-(1-methylethyl)[1,2,4]triazolo[1,5-a]pyrimidin-7(4H)-one]: the IC50 turned out to be 26.5 nM.

For `CC(C)c1c(-c2ccc(CO)cc2)[nH]c2ncnn2c1=O` [Example 11-60, 5-[4-(hydroxymethyl)phenyl]-6-(1-methylethyl)[1,2,4]triazolo[1,5-a]pyrimidin-7(4H)-one], the half-inhibitory concentration (IC50) was 13.5 nM.

As to `Cc1nn(C)c(C)c1-c1[nH]c2ncnn2c(=O)c1C(C)C` [Example 11-61, 6-(1-methylethyl)-5-(1,3,5-trimethyl-1H-pyrazol-4-yl)[1,2,4]triazolo[1,5-a]pyrimidin-7(4H)-one], the IC50 is 2170 nM.

Regarding `CC(C)c1c(C2=CCC(C)(C)CC2)[nH]c2ncnn2c1=O` [Example 11-62, 5-(4,4-dimethylcyclohex-1-en-1-yl)-6-(1-methylethyl)[1,2,4]triazolo[1,5-a]pyrimidin-7(4H)-one], the IC50 came out at 1030 nM.

In the case of `CC(C)c1c(-c2ccc(Cl)cc2)[nH]c2ncnn2c1=O` [Example 11-63, 5-(4-chlorophenyl)-6-(1-methylethyl)[1,2,4]triazolo[1,5-a]pyrimidin-7(4H)-one], the half-maximal inhibitory concentration (IC50) is 71.5 nM.

For `CC(C)c1c(-c2cccc(Cl)c2)[nH]c2ncnn2c1=O` [Example 11-64, 5-(3-chlorophenyl)-6-(1-methylethyl)[1,2,4]triazolo[1,5-a]pyrimidin-7(4H)-one], the IC50 came to 91.8 nM.

Consider `CC(C)c1c(-c2ccccc2Cl)[nH]c2ncnn2c1=O` [Example 11-65, 5-(2-chlorophenyl)-6-(1-methylethyl)[1,2,4]triazolo[1,5-a]pyrimidin-7(4H)-one], for which the IC50 came out at 3360 nM.

Consider `CC(C)c1c(-c2cccc(CC#N)c2)[nH]c2ncnn2c1=O` [Example 11-66, {3-[6-(1-methylethyl)-7-oxo-4,7-dihydro[1,2,4]triazolo[1,5-a]pyrimidin-5-yl]phenyl}acetonitrile], for which the IC50 turned out to be 8.93 nM.

Regarding `CC(C)c1c(-c2ccc(CC#N)cc2)[nH]c2ncnn2c1=O` [Example 11-67, {4-[6-(1-methylethyl)-7-oxo-4,7-dihydro[1,2,4]triazolo[1,5-a]pyrimidin-5-yl]phenyl}acetonitrile], the IC50 is 18.2 nM.

In the case of `CC(C)c1c(-c2cnc3[nH]ccc3c2)[nH]c2ncnn2c1=O` [Example 11-68, 6-(1-methylethyl)-5-(1H-pyrrolo[2,3-b]pyridin-5-yl)[1,2,4]triazolo[1,5-a]pyrimidin-7(4H)-one], the IC50 is 20 nM.

`CC(C)c1c(-c2ccc3nccn3c2)[nH]c2ncnn2c1=O` [Example 11-69, 5-imidazo[1,2-a]pyridin-6-yl-6-(1-methylethyl)[1,2,4]triazolo[1,5-a]pyrimidin-7(4H)-one]: the IC50 stood at 25.8 nM.

In the case of `CC(C)c1c(-c2ccc3nc[nH]c3c2)[nH]c2ncnn2c1=O` [Example 11-70, 5-(1H-benzimidazol-6-yl)-6-(1-methylethyl)[1,2,4]triazolo[1,5-a]pyrimidin-7(4H)-one], the IC50 worked out at 13.5 nM.

For `CC(C)c1c(-c2cccc3[nH]ncc23)[nH]c2ncnn2c1=O` [Example 11-71, 5-(1H-indazol-4-yl)-6-(1-methylethyl)[1,2,4]triazolo[1,5-a]pyrimidin-7(4H)-one], the IC50 worked out at 208 nM.

Turning to `CC(C)c1c(-c2cnn3ncccc23)[nH]c2ncnn2c1=O` [Example 11-72, 6-(1-methylethyl)-5-pyrazolo[1,5-b]pyridazin-3-yl[1,2,4]triazolo[1,5-a]pyrimidin-7(4H)-one], the IC50 was determined as 20.1 nM.

With `CC(C)c1c(-c2ccc3cccnc3c2)[nH]c2ncnn2c1=O` [Example 11-73, 6-(1-methylethyl)-5-quinolin-7-yl[1,2,4]triazolo[1,5-a]pyrimidin-7(4H)-one], the IC50 worked out at 27.2 nM.

As for `CC(C)c1c(-c2ccc3ncccc3c2)[nH]c2ncnn2c1=O` [Example 11-74, 6-(1-methylethyl)-5-quinolin-6-yl[1,2,4]triazolo[1,5-a]pyrimidin-7(4H)-one], the IC50 came out at 14.7 nM.

With `CC(C)c1c(-c2ccnc3ccccc23)[nH]c2ncnn2c1=O` [Example 11-75, 6-(1-methylethyl)-5-quinolin-4-yl[1,2,4]triazolo[1,5-a]pyrimidin-7(4H)-one], the 50% inhibitory concentration (IC50) stood at 904 nM.

On to `CC(C)c1c(-c2cnc3ccccc3c2)[nH]c2ncnn2c1=O` [Example 11-76, 6-(1-methylethyl)-5-quinolin-3-yl[1,2,4]triazolo[1,5-a]pyrimidin-7(4H)-one], for which the IC50 turned out to be 23.8 nM.
